In the kinase profiling compilation of Christmann-Franck et al. (2016):
Where “and” joins values, the source holds several entries; their conditions need not be identical. Identical values can stand only once.

Tests used:
Test in all cases: radiometric filter-binding kinase assay, Kinase HotSpot
Details in all cases: compound 0.5 µM; ATP 10 µM
MAPKAPK5 (human) = MAPKAPK5 (human) (UniProt Q8IW41)
MAPK10 (human) = MAPK10 (human) (UniProt P53779)
FES (human) = FES (human) (UniProt P07332)
MKNK2 (human) = MKNK2 (human) (UniProt Q9HBH9)
MYLK2 (human) = MYLK2 (human) (UniProt Q9H1R3)
STK39 (human) = STK39 (human) (UniProt Q9UEW8)
EPHB4 (human) = EPHB4 (human) (UniProt P54760)
PLK2 (human) = PLK2 (human) (UniProt Q9NYY3)
INSRR (human) = INSRR (human) (UniProt P14616)
CDK9 CCNK (human) = CDK9 CCNK (human) (UniProt O75909+P50750)
MINK1 (human) = MINK1 (human) (UniProt Q8N4C8)
SYK (human) = SYK (human) (UniProt P43405)
MYLK (human) = MYLK (human) (UniProt Q15746)
ULK2 (human) = ULK2 (human) (UniProt Q8IYT8)
PAK6 (human) = PAK6 (human) (UniProt Q9NQU5)
CDK6 CCND1 (human) = CDK6 CCND1 (human) (UniProt Q00534+P24385)
MAP4K4 (human) = MAP4K4 (human) (UniProt O95819)
SGK2 (human) = SGK2 (human) (UniProt Q9HBY8)
PIM1 (human) = PIM1 (human) (UniProt P11309)
AURKA (human) = AURKA (human) (UniProt O14965)
CLK2 (human) = CLK2 (human) (UniProt P49760)
CAMK2B (human) = CAMK2B (human) (UniProt Q13554)
NEK9 (human) = NEK9 (human) (UniProt Q8TD19)
PRKCD (human) = PRKCD (human) (UniProt Q05655)
MLTK (human) = MLTK (human) (UniProt Q9NYL2)
PRKD1 (human) = PRKD1 (human) (UniProt Q15139)
PRKACA (human) = PRKACA (human) (UniProt P17612)
EPHB2 (human) = EPHB2 (human) (UniProt P29323)
STK33 (human) = STK33 (human) (UniProt Q9BYT3)
DAPK1 (human) = DAPK1 (human) (UniProt P53355)
RPS6KB2 (human) = RPS6KB2 (human) (UniProt Q9UBS0)
MET (human) = MET (human) (UniProt P08581)
NEK11 (human) = NEK11 (human) (UniProt Q8NG66)
GSK3A (human) = GSK3A (human) (UniProt P49840)
ROCK1 (human) = ROCK1 (human) (UniProt Q13464)
MST4 (human) = MST4 (human) (UniProt Q9P289)
EPHA1 (human) = EPHA1 (human) (UniProt P21709)
WNK2 (human) = WNK2 (human) (UniProt Q9Y3S1)
CAMK1D (human) = CAMK1D (human) (UniProt Q8IU85)
PRKG1 (human) = PRKG1 (human) (UniProt Q13976)
CDK7 CCNH MNAT1 (human) = CDK7 CCNH MNAT1 (human) (UniProt P50613+P51948+P51946)
CDK2 CCNE1 (human) = CDK2 CCNE1 (human) (UniProt P24941+P24864)

PRKG1 (human), sequence (Q13976 whole entry, looked up): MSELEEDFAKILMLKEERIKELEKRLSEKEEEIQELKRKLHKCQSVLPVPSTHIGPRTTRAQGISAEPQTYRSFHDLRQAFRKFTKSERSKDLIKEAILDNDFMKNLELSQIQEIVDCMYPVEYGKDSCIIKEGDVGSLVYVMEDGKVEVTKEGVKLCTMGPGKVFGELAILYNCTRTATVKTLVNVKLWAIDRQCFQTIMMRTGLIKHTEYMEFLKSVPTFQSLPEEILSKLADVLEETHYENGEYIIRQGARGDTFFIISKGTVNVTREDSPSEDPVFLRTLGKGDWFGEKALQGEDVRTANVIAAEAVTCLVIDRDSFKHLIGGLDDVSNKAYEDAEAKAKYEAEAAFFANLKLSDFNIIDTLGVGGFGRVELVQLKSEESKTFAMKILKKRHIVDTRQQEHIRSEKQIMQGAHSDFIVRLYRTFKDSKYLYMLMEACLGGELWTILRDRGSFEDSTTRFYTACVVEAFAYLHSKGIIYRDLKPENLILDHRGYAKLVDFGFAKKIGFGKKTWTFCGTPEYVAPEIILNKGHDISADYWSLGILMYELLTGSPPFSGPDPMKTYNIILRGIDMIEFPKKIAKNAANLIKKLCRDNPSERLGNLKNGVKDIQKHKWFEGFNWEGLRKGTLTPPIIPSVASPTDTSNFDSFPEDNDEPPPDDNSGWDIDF
RPS6KB2 (human), sequence (Q9UBS0 whole entry, looked up): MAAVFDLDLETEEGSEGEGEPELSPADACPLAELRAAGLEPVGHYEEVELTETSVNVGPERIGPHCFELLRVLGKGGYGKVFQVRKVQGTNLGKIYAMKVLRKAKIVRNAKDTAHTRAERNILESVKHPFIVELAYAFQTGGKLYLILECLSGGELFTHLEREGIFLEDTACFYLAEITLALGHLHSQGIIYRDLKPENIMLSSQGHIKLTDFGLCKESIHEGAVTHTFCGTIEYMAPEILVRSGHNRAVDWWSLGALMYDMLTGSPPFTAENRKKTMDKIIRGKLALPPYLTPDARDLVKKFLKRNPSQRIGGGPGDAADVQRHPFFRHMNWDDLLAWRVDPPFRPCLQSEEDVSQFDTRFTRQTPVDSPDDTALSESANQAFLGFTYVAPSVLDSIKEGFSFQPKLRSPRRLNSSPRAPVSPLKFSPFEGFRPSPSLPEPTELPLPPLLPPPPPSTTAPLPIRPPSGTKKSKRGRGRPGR
ULK2 (human), sequence (Q8IYT8 whole entry, looked up): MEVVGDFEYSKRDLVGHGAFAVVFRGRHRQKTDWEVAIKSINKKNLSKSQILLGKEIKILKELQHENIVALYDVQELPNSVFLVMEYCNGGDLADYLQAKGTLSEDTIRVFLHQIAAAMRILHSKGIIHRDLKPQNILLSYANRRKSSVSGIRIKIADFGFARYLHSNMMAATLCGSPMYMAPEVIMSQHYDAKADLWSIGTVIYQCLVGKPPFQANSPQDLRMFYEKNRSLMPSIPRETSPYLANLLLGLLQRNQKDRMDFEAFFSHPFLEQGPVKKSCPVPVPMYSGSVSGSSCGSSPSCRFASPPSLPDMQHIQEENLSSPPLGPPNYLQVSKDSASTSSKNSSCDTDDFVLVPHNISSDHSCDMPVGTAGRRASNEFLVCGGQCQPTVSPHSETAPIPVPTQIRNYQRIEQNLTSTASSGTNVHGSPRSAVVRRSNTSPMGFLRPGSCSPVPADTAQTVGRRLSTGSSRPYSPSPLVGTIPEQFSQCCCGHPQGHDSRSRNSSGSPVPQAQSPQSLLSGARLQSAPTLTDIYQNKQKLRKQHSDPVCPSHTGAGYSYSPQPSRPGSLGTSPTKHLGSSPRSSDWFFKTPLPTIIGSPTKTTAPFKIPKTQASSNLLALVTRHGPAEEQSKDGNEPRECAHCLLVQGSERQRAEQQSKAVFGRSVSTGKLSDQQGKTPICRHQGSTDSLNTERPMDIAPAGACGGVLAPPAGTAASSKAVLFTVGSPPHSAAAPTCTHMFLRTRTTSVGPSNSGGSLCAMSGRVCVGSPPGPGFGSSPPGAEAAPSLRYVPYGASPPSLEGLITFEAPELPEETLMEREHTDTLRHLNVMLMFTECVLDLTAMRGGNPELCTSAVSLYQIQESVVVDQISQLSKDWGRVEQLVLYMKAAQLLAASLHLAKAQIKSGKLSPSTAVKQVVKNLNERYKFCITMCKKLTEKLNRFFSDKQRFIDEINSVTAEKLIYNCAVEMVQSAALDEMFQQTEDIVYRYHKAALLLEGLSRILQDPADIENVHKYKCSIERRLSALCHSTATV
CDK7 CCNH MNAT1 (human), sequence (P50613 whole entry, looked up): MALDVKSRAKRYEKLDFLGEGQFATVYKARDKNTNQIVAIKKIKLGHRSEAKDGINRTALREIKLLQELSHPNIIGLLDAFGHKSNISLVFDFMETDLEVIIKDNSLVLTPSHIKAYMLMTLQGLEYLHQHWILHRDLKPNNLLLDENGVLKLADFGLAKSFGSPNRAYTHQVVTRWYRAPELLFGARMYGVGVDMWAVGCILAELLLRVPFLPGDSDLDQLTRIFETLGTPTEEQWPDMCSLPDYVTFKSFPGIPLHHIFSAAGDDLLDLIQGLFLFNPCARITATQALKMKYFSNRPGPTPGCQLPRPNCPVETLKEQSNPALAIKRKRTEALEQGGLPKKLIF
CDK7 CCNH MNAT1 (human), sequence (P51946 whole entry, looked up): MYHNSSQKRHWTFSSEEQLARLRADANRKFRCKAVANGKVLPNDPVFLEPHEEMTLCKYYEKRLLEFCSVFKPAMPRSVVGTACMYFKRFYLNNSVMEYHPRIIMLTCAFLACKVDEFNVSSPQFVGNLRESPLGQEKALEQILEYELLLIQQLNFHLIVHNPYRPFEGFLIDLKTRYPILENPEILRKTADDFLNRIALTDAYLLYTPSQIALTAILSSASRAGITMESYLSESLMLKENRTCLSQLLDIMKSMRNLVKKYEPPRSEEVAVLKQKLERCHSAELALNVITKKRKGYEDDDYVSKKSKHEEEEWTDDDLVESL
CDK7 CCNH MNAT1 (human), sequence (P51948 whole entry, looked up): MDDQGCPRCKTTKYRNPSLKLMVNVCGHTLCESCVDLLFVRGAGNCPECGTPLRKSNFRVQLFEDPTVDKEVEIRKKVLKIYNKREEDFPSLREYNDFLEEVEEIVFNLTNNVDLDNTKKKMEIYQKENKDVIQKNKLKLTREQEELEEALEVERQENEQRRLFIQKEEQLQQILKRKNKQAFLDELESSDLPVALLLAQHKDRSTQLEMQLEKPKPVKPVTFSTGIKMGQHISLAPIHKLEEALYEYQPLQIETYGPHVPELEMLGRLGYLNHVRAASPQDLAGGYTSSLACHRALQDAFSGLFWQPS
CAMK1D (human), sequence (Q8IU85 whole entry, looked up): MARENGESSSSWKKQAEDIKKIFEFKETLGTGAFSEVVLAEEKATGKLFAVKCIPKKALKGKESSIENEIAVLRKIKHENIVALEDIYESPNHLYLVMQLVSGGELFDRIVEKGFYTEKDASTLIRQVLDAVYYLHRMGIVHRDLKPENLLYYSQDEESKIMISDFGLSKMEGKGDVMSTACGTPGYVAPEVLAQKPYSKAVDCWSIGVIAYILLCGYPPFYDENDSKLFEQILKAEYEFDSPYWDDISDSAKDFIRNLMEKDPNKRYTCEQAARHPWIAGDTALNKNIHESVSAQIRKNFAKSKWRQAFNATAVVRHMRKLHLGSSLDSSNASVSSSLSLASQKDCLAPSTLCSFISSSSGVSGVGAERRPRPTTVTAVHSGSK
PRKCD (human), sequence (Q05655 whole entry, looked up): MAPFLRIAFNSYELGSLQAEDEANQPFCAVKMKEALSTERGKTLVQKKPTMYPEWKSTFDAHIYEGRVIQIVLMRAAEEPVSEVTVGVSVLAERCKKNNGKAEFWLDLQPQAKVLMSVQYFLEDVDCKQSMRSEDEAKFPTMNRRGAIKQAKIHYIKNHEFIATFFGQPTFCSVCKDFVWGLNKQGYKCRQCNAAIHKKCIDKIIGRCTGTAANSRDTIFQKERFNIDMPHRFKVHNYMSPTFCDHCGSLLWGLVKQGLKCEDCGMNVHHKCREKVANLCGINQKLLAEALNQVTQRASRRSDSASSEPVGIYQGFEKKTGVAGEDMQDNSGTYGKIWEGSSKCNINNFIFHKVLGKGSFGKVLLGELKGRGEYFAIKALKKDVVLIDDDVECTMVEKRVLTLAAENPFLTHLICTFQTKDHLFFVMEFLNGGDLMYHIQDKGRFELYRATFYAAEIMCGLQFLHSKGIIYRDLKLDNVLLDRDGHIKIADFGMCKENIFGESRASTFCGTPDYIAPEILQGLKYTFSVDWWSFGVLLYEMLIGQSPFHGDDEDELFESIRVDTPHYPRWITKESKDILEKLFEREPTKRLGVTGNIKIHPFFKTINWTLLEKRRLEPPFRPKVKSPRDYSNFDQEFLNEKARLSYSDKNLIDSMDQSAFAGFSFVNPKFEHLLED
SGK2 (human), sequence (Q9HBY8 whole entry, looked up): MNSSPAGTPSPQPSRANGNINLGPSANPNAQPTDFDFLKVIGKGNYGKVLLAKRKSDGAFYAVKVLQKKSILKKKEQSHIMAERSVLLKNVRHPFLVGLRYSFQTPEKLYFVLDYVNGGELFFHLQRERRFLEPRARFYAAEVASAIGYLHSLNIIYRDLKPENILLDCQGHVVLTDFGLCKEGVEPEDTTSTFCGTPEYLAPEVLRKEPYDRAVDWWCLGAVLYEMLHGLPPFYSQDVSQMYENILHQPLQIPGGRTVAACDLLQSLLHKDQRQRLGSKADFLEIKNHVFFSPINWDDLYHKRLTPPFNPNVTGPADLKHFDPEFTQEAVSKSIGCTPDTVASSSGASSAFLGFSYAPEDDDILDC
AURKA (human), sequence (O14965 whole entry, looked up): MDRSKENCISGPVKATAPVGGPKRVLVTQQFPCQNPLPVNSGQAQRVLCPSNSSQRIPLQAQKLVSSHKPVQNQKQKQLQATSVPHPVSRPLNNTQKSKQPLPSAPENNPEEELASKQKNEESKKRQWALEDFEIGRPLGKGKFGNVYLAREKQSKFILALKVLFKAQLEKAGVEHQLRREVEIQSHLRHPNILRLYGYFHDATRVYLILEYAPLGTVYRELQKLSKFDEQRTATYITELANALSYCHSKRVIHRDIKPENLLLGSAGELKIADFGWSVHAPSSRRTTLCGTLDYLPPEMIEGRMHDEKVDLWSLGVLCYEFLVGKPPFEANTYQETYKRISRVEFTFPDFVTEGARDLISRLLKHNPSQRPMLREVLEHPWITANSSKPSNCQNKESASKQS

NC(=O)c1ccc(N(C(N)=O)c2c(F)cccc2F)nc1-c1ccc(F)cc1F
residual activity (MAPKAPK5 (human)): 93.4%
residual activity (MAPK10 (human)): 98.4%
residual activity (FES (human)): 99%
residual activity (MKNK2 (human)): 101%
residual activity (MYLK2 (human)): 101%
residual activity (STK39 (human)): 93.7%
residual activity (EPHB4 (human)): 83.9%
residual activity (PLK2 (human)): 102%
residual activity (INSRR (human)): 102%
residual activity (CDK9 CCNK (human)): 106%
residual activity (MINK1 (human)): 100%
residual activity (SYK (human)): 110%
residual activity (MYLK (human)): 101%
residual activity (ULK2 (human)): 101%
residual activity (PAK6 (human)): 103%
residual activity (CDK6 CCND1 (human)): 95.1%
residual activity (MAP4K4 (human)): 108%
residual activity (SGK2 (human)): 107%
residual activity (PIM1 (human)): 98.8%
residual activity (AURKA (human)): 86.4%
residual activity (CLK2 (human)): 86.9%
residual activity (CAMK2B (human)): 104%
residual activity (NEK9 (human)): 104%
residual activity (PRKCD (human)): 104%
residual activity (MLTK (human)): 97.9%
residual activity (PRKD1 (human)): 97.7%
residual activity (PRKACA (human)): 101%
residual activity (EPHB2 (human)): 107%
residual activity (STK33 (human)): 94%
residual activity (DAPK1 (human)): 98.2%
residual activity (RPS6KB2 (human)): 100%
residual activity (MET (human)): 89.4%
residual activity (NEK11 (human)): 92.9%
residual activity (GSK3A (human)): 98.6%
residual activity (ROCK1 (human)): 108%
residual activity (MST4 (human)): 117%
residual activity (EPHA1 (human)): 99.1%
residual activity (WNK2 (human)): 96.4%
residual activity (CAMK1D (human)): 114%
residual activity (PRKG1 (human)): 88.1% and 95.7%
residual activity (CDK7 CCNH MNAT1 (human)): 102%
residual activity (CDK2 CCNE1 (human)): 93.1%

Oc1ccc(-c2nc(-c3ccc(F)cc3)c(-c3ccncc3)[nH]2)cc1
residual activity (MAPKAPK5 (human)): 102%
residual activity (MAPK10 (human)): 117%
residual activity (FES (human)): 101%
residual activity (MKNK2 (human)): 89.4%
residual activity (MYLK2 (human)): 93.5%
residual activity (STK39 (human)): 94.8%
residual activity (EPHB4 (human)): 89%
residual activity (PLK2 (human)): 98.7%
residual activity (INSRR (human)): 98%
residual activity (CDK9 CCNK (human)): 101%
residual activity (MINK1 (human)): 102%
residual activity (SYK (human)): 101%
residual activity (MYLK (human)): 106%
residual activity (ULK2 (human)): 97.3%
residual activity (PAK6 (human)): 104%
residual activity (CDK6 CCND1 (human)): 97.6%
residual activity (MAP4K4 (human)): 86.5%
residual activity (SGK2 (human)): 99.6%
residual activity (PIM1 (human)): 106%
residual activity (AURKA (human)): 96.1%
residual activity (CLK2 (human)): 105%
residual activity (CAMK2B (human)): 96.4%
residual activity (NEK9 (human)): 99.4%
residual activity (PRKCD (human)): 99.3%
residual activity (MLTK (human)): 98.8%
residual activity (PRKD1 (human)): 90.7%
residual activity (PRKACA (human)): 84.3%
residual activity (EPHB2 (human)): 105%
residual activity (STK33 (human)): 103%
residual activity (DAPK1 (human)): 95%
residual activity (RPS6KB2 (human)): 91.4%
residual activity (MET (human)): 94.4%
residual activity (NEK11 (human)): 80.6%
residual activity (GSK3A (human)): 91.1%
residual activity (ROCK1 (human)): 101%
residual activity (MST4 (human)): 101%
residual activity (EPHA1 (human)): 94.4%
residual activity (WNK2 (human)): 102%
residual activity (CAMK1D (human)): 102%
residual activity (PRKG1 (human)): 87% and 90.4%
residual activity (CDK7 CCNH MNAT1 (human)): 99.4%
residual activity (CDK2 CCNE1 (human)): 90.6%
